Experimental data reported in patent publication US9346810B2, “Pyrrolopyrimidine compounds and uses thereof” (HUTCHISON MEDIPHARMA LIMITED, priority 2010, dated 2016).
Like-named read-outs stand apart in the source and are kept apart here.

Columns and labels:
Type in all cases: biochemical
[1] = molecular target: Recombinant human JAK1 catalytic domain (Homo sapiens (Human), UniProt P23458); test: JAK1 kinase assay (Z'-LYTE, Tyr 6 Peptide); conditions: read-out: IC50 in JAK1 kinase assay
Procedure: (§1) JAK1/2/3 kinase assay are performed in vitro using Kit-Tyr 6 Peptide (Invitrogen, Cat. No. PV4122). TYK2 kinase assay are performed in vitro using Z′-LYTE™ Kinase Assay Kit-Tyr 3 Peptide (Invitrogen, Cat. No. PV3192). […] All compounds are initially tested at 8 different concentrations (1 μM down to 0.0003 μM) using a 1:3 serial dilution scheme.

[2] = molecular target: Recombinant human JAK2 catalytic domain (Homo sapiens (Human), UniProt O60674); test: JAK2 kinase assay (Z'-LYTE, Tyr 6 Peptide)
Chain of Recombinant human JAK2 catalytic domain (O60674 849-1124): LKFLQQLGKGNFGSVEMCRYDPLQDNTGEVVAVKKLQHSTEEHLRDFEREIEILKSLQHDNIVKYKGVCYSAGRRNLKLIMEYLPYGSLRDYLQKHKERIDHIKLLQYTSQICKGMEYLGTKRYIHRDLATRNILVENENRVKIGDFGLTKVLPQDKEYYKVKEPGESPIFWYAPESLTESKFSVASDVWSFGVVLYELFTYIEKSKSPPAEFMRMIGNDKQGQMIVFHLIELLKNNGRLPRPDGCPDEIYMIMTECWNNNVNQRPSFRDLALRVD
Procedure: as §1

[3] = molecular target: Recombinant human JAK3 catalytic domain (Homo sapiens (Human), UniProt P52333); test: JAK3 kinase assay (Z'-LYTE, Tyr 6 Peptide)
Chain of Recombinant human JAK3 catalytic domain (P52333 822-1111): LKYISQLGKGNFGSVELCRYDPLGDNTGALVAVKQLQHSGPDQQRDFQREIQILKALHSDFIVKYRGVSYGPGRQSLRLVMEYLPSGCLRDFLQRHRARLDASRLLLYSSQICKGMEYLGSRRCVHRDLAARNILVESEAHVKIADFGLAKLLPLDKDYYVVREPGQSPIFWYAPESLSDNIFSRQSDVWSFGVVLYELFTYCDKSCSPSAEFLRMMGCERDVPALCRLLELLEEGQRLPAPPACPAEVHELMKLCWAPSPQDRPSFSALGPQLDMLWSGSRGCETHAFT
Procedure: as §1

[4] = read-out: IC50 in JAK2 kinase assay
[5] = read-out: IC50 in JAK3 kinase assay

Chain of Recombinant human JAK1 catalytic domain (P23458 875-1153): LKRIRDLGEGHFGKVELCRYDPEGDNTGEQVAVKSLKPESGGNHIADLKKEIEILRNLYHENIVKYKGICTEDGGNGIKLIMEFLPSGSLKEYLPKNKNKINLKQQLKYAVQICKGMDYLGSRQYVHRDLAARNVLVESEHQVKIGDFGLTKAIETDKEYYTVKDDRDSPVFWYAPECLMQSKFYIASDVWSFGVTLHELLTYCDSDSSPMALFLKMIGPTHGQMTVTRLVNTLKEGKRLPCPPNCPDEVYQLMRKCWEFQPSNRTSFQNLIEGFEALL

SMILES | IC50 [1] | IC50 [2, 4] | IC50 [3, 5] | further results
CN(C(=O)Nc1cccc(C#N)c1)[C@@H]1CCN(c2ncnc3[nH]ccc23)C1 [Compound 16, (R)-1-(1-(7H-pyrrolo[2,3-d]pyrimidin-4-yl)pyrrolidin-3-yl)-3-(3-cyanophenyl)-1-methylurea] | 1 to 100 nM | 100 to 1000 nM | – | –
CN(C(=O)CCc1c(Cl)cccc1Cl)[C@@H]1CCN(c2ncnc3[nH]ccc23)C1 [Compound 21] | 1 to 100 nM | – | – | –
CN(C(=O)NC1CCOCC1)[C@@H]1CCN(c2ncnc3[nH]ccc23)C1 [Compound 36] | 1 to 100 nM | – | – | –
CN(C(=O)N1CCCC1)[C@@H]1CCN(c2ncnc3[nH]ccc23)C1 [Compound 37] | 1 to 100 nM | – | – | –
CN(c1ccc(C#N)cn1)[C@@H]1CCN(c2ccnc3[nH]ccc23)C1 [Compound 92] | – | 1 to 100 nM | 100 to 1000 nM | –
CN(c1ncc(Br)cn1)[C@@H]1CCN(c2ncnc3[nH]ccc23)C1 [Compound 94] | – | 1 to 100 nM | 100 to 1000 nM | –
CN(c1ncc(C#N)cc1[N+](=O)[O-])[C@@H]1CCN(c2ncnc3[nH]ccc23)C1 [Compound 96] | – | 100 to 1000 nM | 100 to 1000 nM | –
CCCN(c1ccc(C#N)cn1)[C@@H]1CCN(c2ncnc3[nH]ccc23)C1 [Compound 98] | – | 1 to 100 nM | 100 to 1000 nM | –
CN(c1ncc(C#N)cc1Br)[C@@H]1CCN(c2ncnc3[nH]ccc23)C1 [Compound 99] | – | 1 to 100 nM | 100 to 1000 nM | –
CN(c1ccc(C#N)c(F)c1)[C@@H]1CCN(c2ncnc3[nH]ccc23)C1 [Compound 105] | – | – | – | IC50 ([2]; read-out: JAK2 (enzyme, IC50)): 48.7 nM; IC50 ([3]; read-out: JAK3 (enzyme, IC50)): 359 nM
CN(c1cc(F)c(C#N)c(F)c1)[C@@H]1CCN(c2ncnc3[nH]ccc23)C1 [Compound 106] | 1 to 100 nM | – | – | –
CN(c1ccc(C#N)cc1[N+](=O)[O-])[C@@H]1CCN(c2ncnc3[nH]ccc23)C1 [Compound 107] | – | 100 to 1000 nM | 100 to 1000 nM | –
CN(c1ccc(C#N)c(Br)c1)[C@@H]1CCN(c2ncnc3[nH]ccc23)C1 [Compound 114] | – | 1 to 100 nM | 100 to 1000 nM | –
CN(c1cccc(C#N)c1)[C@@H]1CCN(c2ncnc3[nH]ccc23)C1 [Compound 119, (R)-3-((1-(7H-pyrrolo[2,3-d]pyrimidin-4-yl)pyrrolidin-3-yl)(methyl)amino)benzonitrile] | 1 to 100 nM | – | – | –
CN(c1ccc(S(=O)(=O)C(F)(F)F)cc1)[C@@H]1CCN(c2ncnc3[nH]ccc23)C1 [Compound 122] | 1 to 100 nM | 1 to 100 nM | – | –
N#Cc1ccc(N(CC2CC2)[C@@H]2CCN(c3ncnc4[nH]ccc34)C2)nc1 [Compound 124] | 1 to 100 nM | 1 to 100 nM | – | –

SMILES | IC50 [1] | IC50 [2, 4] | IC50 [3, 5] | further results
CN(c1cc2cn[nH]c2cn1)[C@@H]1CCN(c2ncnc3[nH]ccc23)C1 [Compound 125, (R)—N-(1-(7H-pyrrolo[2,3-d]pyrimidin-4-yl)pyrrolidin-3-yl)-N-methyl-1H-pyrazolo[3,4-c]pyridin-5-amine] | 1 to 100 nM | 1 to 100 nM | – | –
C#CCN(c1cnc(C#N)cn1)[C@@H]1CCN(c2ncnc3[nH]ccc23)C1 [Compound 127] | 1 to 100 nM | – | – | –
C#CCN(c1ccc(C#N)cn1)[C@@H]1CCN(c2ncnc3[nH]ccc23)C1 [Compound 128] | 1 to 100 nM | 1 to 100 nM | – | –
C#CCN(c1c(F)cc(C#N)cc1F)[C@@H]1CCN(c2ncnc3[nH]ccc23)C1 [Compound 129] | – | 1 to 100 nM | 1 to 100 nM | –
C#CCN(c1ccc(C#N)cc1)[C@@H]1CCN(c2ncnc3[nH]ccc23)C1 [Compound 131] | – | 1 to 100 nM | 100 to 1000 nM | –
CN(c1ccc(-c2ccncc2)cn1)[C@@H]1CCN(c2ncnc3[nH]ccc23)C1 [Compound 144, (R)—N-(1-(7H-pyrrolo[2,3-d]pyrimidin-4-yl)pyrrolidin-3-yl)-N-methyl-3,4′-bipyridin-6-amine] | 1 to 100 nM | – | – | –
CN(c1ncccc1C#N)[C@@H]1CCN(c2ncnc3[nH]ccc23)C1 [Compound 159] | – | 1 to 100 nM | 100 to 1000 nM | –
C#Cc1ccc(N(C)[C@@H]2CCN(c3ncnc4[nH]ccc34)C2)nc1 [Compound 162, (R)—N-(1-(7H-pyrrolo[2,3-d]pyrimidin-4-yl)pyrrolidin-3-yl)-5-ethynyl-N-methylpyridin-2-amine] | – | 1 to 100 nM | 1 to 100 nM | –
CN(c1ccc2nc[nH]c2n1)[C@@H]1CCN(c2ncnc3[nH]ccc23)C1 [Compound 163, (R)—N-(1-(7H-pyrrolo[2,3-d]pyrimidin-4-yl)pyrrolidin-3-yl)-N-methyl-3H-imidazo[4,5-b]pyridin-5-amine] | – | 1 to 100 nM | 100 to 1000 nM | –
CN(c1ccc2[nH]c(=O)[nH]c2n1)[C@@H]1CCN(c2ncnc3[nH]ccc23)C1 [Compound 164, (R)-5-((1-(7H-pyrrolo[2,3-d]pyrimidin-4-yl)pyrrolidin-3-yl)(methyl)amino)-1H-Imidazo[4,5-b]pyridin-2(3H)-one] | – | 1 to 100 nM | 100 to 1000 nM | –
COC(=O)c1ccc(N(C)[C@@H]2CCN(c3ncnc4[nH]ccc34)C2)nc1 [Compound 168, (R)-methyl 6-((1-(7H-pyrrolo[2,3-d]pyrimidin-4-yl)pyrrolidin-3-yl)(methyl)amino)nicotinate] | – | 1 to 100 nM | 100 to 1000 nM | –
CN(c1ccc(C(=O)NC2CC2)cn1)[C@@H]1CCN(c2ncnc3[nH]ccc23)C1 [Compound 171, (R)-6-((1-(7H-pyrrolo[2,3-d]pyrimidin-4-yl)pyrrolidin-3-yl)(methyl)amino)-N-cyclopropylnicotinamide] | – | 1 to 100 nM | 100 to 1000 nM | –
C[C@H](NC(=O)c1ccc(N(C)[C@@H]2CCN(c3ncnc4[nH]ccc34)C2)c(F)c1)c1ccccc1 [Compound 182] | – | 1 to 100 nM | 1 to 100 nM | –
CN(c1c(F)cc(C(=O)N[C@@H](CO)c2ccccc2)cc1F)[C@@H]1CCN(c2ncnc3[nH]ccc23)C1 [Compound 208] | – | 1 to 100 nM | 1 to 100 nM | –
CCS(=O)(=O)Nc1ccc(N(C)[C@@H]2CCN(c3ncnc4[nH]ccc34)C2)nc1 [Compound 210, (R)—N-(6-((1-(7H-pyrrolo[2,3-d]pyrimidin-4-yl)pyrrolidin-3-yl)(methyl)amino)pyridin-3-yl)ethanesulfonamide] | – | – | – | IC50 [2]: 1 to 100 nM; IC50 [3]: 100 to 1000 nM

Second part, led by results:

IC50 [1] | IC50 [2, 4] | IC50 [3, 5] | SMILES | further results
1 to 100 nM | 100 to 1000 nM | – | CN(C(=O)Nc1ccc(C(F)(F)F)cc1)[C@@H]1CCN(c2ncnc3[nH]ccc23)C1 [Compound 30] | –
1 to 100 nM | – | – | CN(C(=O)Nc1ccc(Cl)cc1)[C@@H]1CCN(c2ncnc3[nH]ccc23)C1 [Compound 33] | –
1 to 100 nM | 100 to 1000 nM | – | CN(c1ccc(Br)cn1)[C@@H]1CCN(c2ncnc3[nH]ccc23)C1 [Compound 68] | –
– | 1 to 100 nM | 100 to 1000 nM | CN(c1cccc(C#N)n1)[C@@H]1CCN(c2ncnc3[nH]ccc23)C1 [Compound 91] | –
– | 1 to 100 nM | 100 to 1000 nM | CN(c1ccc(C#N)cn1)[C@H]1CCN(c2ncnc3[nH]ccc23)C1 [Compound 102] | –
– | 1 to 100 nM | 100 to 1000 nM | CN(c1ccc(C#N)c2ccccc12)[C@@H]1CCN(c2ncnc3[nH]ccc23)C1 [Compound 111] | –
1 to 100 nM | 1 to 100 nM | – | CN(c1ccc(C(F)(F)F)cn1)[C@@H]1CCN(c2ncnc3[nH]ccc23)C1 [Compound 123] | –
– | 1 to 100 nM | 100 to 1000 nM | CN(c1ccccn1)[C@@H]1CCN(c2ncnc3[nH]ccc23)C1 [Compound 156] | –
– | 1 to 100 nM | 100 to 1000 nM | CN(c1ccc(C(=O)N[C@H](CO)c2ccccc2)cn1)[C@@H]1CCN(c2ncnc3[nH]ccc23)C1 [Compound 174] | –
– | 1 to 100 nM | 100 to 1000 nM | CN(c1ccc(C(=O)NCc2ccccc2)cc1F)[C@@H]1CCN(c2ncnc3[nH]ccc23)C1 [Compound 187] | –
– | 1 to 100 nM | 100 to 1000 nM | CN(c1ccc(C(=O)NCCO)cn1)[C@@H]1CCN(c2ncnc3[nH]ccc23)C1 [Compound 190] | –
– | 1 to 100 nM | 1 to 100 nM | COC[C@H](NC(=O)c1ccc(N(C)[C@@H]2CCN(c3ncnc4[nH]ccc34)C2)nc1)c1ccccc1 [Compound 209] | –
1 to 100 nM | – | – | CN(c1ccc(NS(=O)(=O)c2cccs2)cn1)[C@@H]1CCN(c2ncnc3[nH]ccc23)C1 [Compound 214] | –
1 to 100 nM | – | – | CN(c1ccc(NS(=O)(=O)c2cccnc2)cn1)[C@@H]1CCN(c2ncnc3[nH]ccc23)C1 [Compound 215] | –
1 to 100 nM | – | – | CN(c1ccc(NS(=O)(=O)Cc2ccccc2F)cn1)[C@@H]1CCN(c2ncnc3[nH]ccc23)C1 [Compound 219] | –
1 to 100 nM | – | – | CN(c1ccc(S(=O)(=O)N[C@@H]2c3ccccc3C[C@H]2O)cn1)[C@@H]1CCN(c2ncnc3[nH]ccc23)C1 [Compound 233] | –
1 to 100 nM | – | – | COCCNS(=O)(=O)c1ccc(N(C)[C@@H]2CCN(c3ncnc4[nH]ccc34)C2)nc1 [Compound 237] | –
1 to 100 nM | – | – | CN(c1ccc(S(=O)(=O)NC(C)(C)C)cn1)[C@@H]1CCN(c2ncnc3[nH]ccc23)C1 [Compound 238] | –
1 to 100 nM | – | – | C[C@H](O)CNS(=O)(=O)c1ccc(N(C)[C@@H]2CCN(c3ncnc4[nH]ccc34)C2)nc1 [Compound 245] | –
1 to 100 nM | – | – | CN(c1ccc(S(=O)(=O)NC2CCC[C@@H]2O)cn1)[C@@H]1CCN(c2ncnc3[nH]ccc23)C1 (stereo partly drawn) [Compound 246] | –
1 to 100 nM | – | – | CN(c1ccc(S(=O)(=O)N2CCCC2)cn1)[C@@H]1CCN(c2ncnc3[nH]ccc23)C1 [Compound 247] | –
1 to 100 nM | – | – | CN(c1ccc(S(=O)(=O)N2CCNCC2)cn1)[C@@H]1CCN(c2ncnc3[nH]ccc23)C1 [Compound 251] | –
1 to 100 nM | – | – | CN(c1ccc(S(=O)(=O)Nc2ccc(F)cc2)cn1)[C@@H]1CCN(c2ncnc3[nH]ccc23)C1 [Compound 253] | –
1 to 100 nM | – | – | CN(c1ccc(S(=O)(=O)NCc2ccc(F)cc2)cn1)[C@@H]1CCN(c2ncnc3[nH]ccc23)C1 [Compound 254] | –
